In patent US20250084035A1, “POLYMORPHIC FORM OF MEISOINDIGO AND MODIFIED FORMULATION OF MEISOINDIGO” (STATIA BIOPHARMA INC., priority 2018, published 2025):

Tests used:
[1] = Solubility in solvents (descriptive); format: physicochemical
leukemia cells = conditions: cited from earlier work
ulcerative colitis = test: Clinical trial in ulcerative colitis; format: in vivo, humans; conditions: recent clinical trial
[2] = Particle size and distribution, Malvern Mastersizer 2000; format: physicochemical; conditions: for Particle size d10 / Particle size d50 / Particle size d90: Crystal Form I, Malvern Mastersizer 2000; for Particle Size Distribution Ratio: calculated as (d90-d10)/d50
Experimental: Crystal Form I was analyzed for its particle size and distribution. Five batches were tested using a Malvern Mastersizer 2000 (MIIA14730, Malvern, UK).

| SMILES | Solubility ([1]; in acetone) | Solubility ([1]; in chloroform) | Solubility ([1]; in ethanol) | Solubility ([1]; in water) | Particle size d10 [2] [μm] | Particle size d50 [2] [μm] | Particle size d90 [2] [μm] | Particle Size Distribution Ratio [2] | Cell cycle effect (leukemia cells; leukemia cells) | Expression of oncogene c-myb (leukemia cells; leukemia cells) | Cell growth (leukemia cells; low concentrations, without a decrease in cell viability) | Efficacy against ulcerative colitis (ulcerative colitis) | Side effects (ulcerative colitis) |
| --- | --- | --- | --- | --- | --- | --- | --- | --- | --- | --- | --- | --- | --- |
| CN1C(=O)/C(=C2/C(=O)Nc3ccccc32)c2ccccc21 [N-methylisoindigo] | sparingly soluble | sparingly soluble | sparingly soluble | slightly soluble | – | – | – | – | arrests leukemia cells at G phase | inhibits | completely inhibited | very effective | no significant side effects |
| CN1C(=O)/C(=C2/C(=O)Nc3ccccc32)c2ccccc21 [NAT-0601, N-methylisoindigo] | – | – | – | – | 2.506 | 12.464 | 25.635 | 1.86 | – | – | – | – | – |
| CN1C(=O)/C(=C2/C(=O)Nc3ccccc32)c2ccccc21 [NAT-0801, N-methylisoindigo] | – | – | – | – | 3.249 | 12.268 | 23.99 | 1.69 | – | – | – | – | – |

More lines, main results first:

| Solubility ([1]; in acetone) | Solubility ([1]; in chloroform) | Solubility ([1]; in ethanol) | Solubility ([1]; in water) | Particle size d10 [2] [μm] | Particle size d50 [2] [μm] | Particle size d90 [2] [μm] | Particle Size Distribution Ratio [2] | SMILES | Cell cycle effect (leukemia cells; leukemia cells) | Expression of oncogene c-myb (leukemia cells; leukemia cells) | Cell growth (leukemia cells; low concentrations, without a decrease in cell viability) | Efficacy against ulcerative colitis (ulcerative colitis) | Side effects (ulcerative colitis) |
| --- | --- | --- | --- | --- | --- | --- | --- | --- | --- | --- | --- | --- | --- |
| – | – | – | – | 3.599 | 13.301 | 26.897 | 1.75 | CN1C(=O)/C(=C2/C(=O)Nc3ccccc32)c2ccccc21 [NAT-1201, N-methylisoindigo] | – | – | – | – | – |
| – | – | – | – | 5.035 | 15.603 | 30.339 | 1.62 | CN1C(=O)/C(=C2/C(=O)Nc3ccccc32)c2ccccc21 [NAT-1202, N-methylisoindigo] | – | – | – | – | – |
| – | – | – | – | 5.295 | 15.674 | 30.015 | 1.58 | CN1C(=O)/C(=C2/C(=O)Nc3ccccc32)c2ccccc21 [NAT-1203, N-methylisoindigo] | – | – | – | – | – |
